BindingDB's records for doi:10.1021/jm034182u (Virginia Commonwealth University, 2004)

Target: E3 ubiquitin-protein ligase Mdm2 (Homo sapiens, UniProt Q00987)
Assay: ELISA-Based p53-MDM2 Binding Assay
Conditions: pH 7.6; 37 °C
Experimental: ELISA plates were coated with equivalent amounts of either glutathione S-transferase (GST) protein or GST-MDM2 (1-188) fusion protein and incubated on a microtiter plate shaker overnight at 4 deg C. After washing the wells five times with PBS containing 0.2 M NaCl, the plates were incubated at 37 deg C with blocking solution (PBS containing 5% nonfat dry milk) for 2 hours. After the plates were washed five times, the GST-p53 was added, and the plates were incubated for an additional 30 minutes at 37 deg C. After another washing step, the plates were incubated with the anti-p53 monoclonal pAb421 (Oncogene Science, Inc.) in blocking solution for 1 hour at 37 deg C. The plates were again washed five times and incubated for 1 hour at 37 deg C with a goat anti-mouse IgG alkaline phosphatase conjugate (Promega, Inc.). Excess antibody was removed with 15 washes, the wells were filled with PBS, and the absorbance at 405 nm was read to establish background readings for the wells. […] Finally, the A405 was measured with a microplate spectrophotometer (Molecular Devices, Inc.). […] Absorbance values were normalized by subtraction of equivalent GST-seeded well values from their GST-mdm2 (1-188)-seeded neighbors. IC50 values were determined by fitting data to a three-parameter sigmoidal dose-response function.

E3 ubiquitin-protein ligase Mdm2, sequence (Q00987 whole entry): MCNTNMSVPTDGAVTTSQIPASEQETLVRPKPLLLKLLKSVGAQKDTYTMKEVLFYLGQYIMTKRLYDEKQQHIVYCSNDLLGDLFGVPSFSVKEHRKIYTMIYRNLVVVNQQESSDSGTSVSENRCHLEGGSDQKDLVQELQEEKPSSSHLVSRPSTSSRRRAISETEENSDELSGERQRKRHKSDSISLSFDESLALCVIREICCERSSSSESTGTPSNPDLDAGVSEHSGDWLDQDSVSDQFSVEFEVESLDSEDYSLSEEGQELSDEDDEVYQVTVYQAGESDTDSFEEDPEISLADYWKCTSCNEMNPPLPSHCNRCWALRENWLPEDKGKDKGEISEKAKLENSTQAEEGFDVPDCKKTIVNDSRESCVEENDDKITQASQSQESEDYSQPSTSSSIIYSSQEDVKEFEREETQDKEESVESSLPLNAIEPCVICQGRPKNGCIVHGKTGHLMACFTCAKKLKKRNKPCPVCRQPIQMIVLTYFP

IC50: 31.8 µM
SMILES: CC(C)Oc1ccc(C(=O)NS(=O)(=O)c2ccc(N=Nc3c(O)n(-c4ccccc4)n(-c4ccccc4)c3=O)cc2)cc1
